How the values were obtained:
[1] = Emanation (release) rate of active agent from three-layer substrate 250 by weight loss over 40 days (Example 1, FIG. 13); type: physicochemical; conditions: substrate 250, approx. 30 cm^2, dosed with approx. 75 mg active agent
[2] = Emanation rate of transfluthrin from dispensing device 200 with substrate 250 in a sealed chamber over 75 days (Example 2, FIGS. 15A-15C); type: physicochemical; conditions: for constant emanation rate: dose about 2400 mg
Procedure: In connection with the examples herein, the emanation rates and the amount of active agent, e.g., an amount of transfluthrin, remaining in the substrate of the examples herein were measured by analyzing the weight loss of a particular substrate over time. More particularly, the amount of active agent remaining within a particular substrate may be calculated by first measuring the substrate 250 prior to dosing the substrate 250 with the active agent (or volatile material) and then subtracting that value from the weight of the substrate 250 at any given time after dosing. For example, with reference to Example 1, an initial weight of the substrate 250 was measured, the substrate 250 was dosed with an active agent (i.e., transfluthrin or metofluthrin), and a weight of the substrate 250 was measured multiple times after initial dosage and after emanation of the active agent into the ambient environment. The initial weight of the substrate 250 was then subtracted from a weight of the substrate 250 after initial dosage and this value indicated the remaining active agent within the substrate 250. Further, after determining the remaining active agent within the substrate 250, the amount of active agent (or volatile material) emanated to the ambient environment may also be calculated by subtracting the amount of active agent remaining in the substrate 250 from the initial dosage amount of the active agent. All weight measurements can be performed on an analytical scale. Further, the examples herein were conducted in a closed environment, such as a sealed chamber, having a controlled airflow rate.
In this example, the substrate 250 includes three layers, such as the first layer 252, the second layer 254, and the third layer 256. Further, in this embodiment, the first layer 252 is a woven material having a honeycomb weave pattern, a pore size of 3 mm and a thickness of 0.3 mm; the second layer 254 is a fibrous material constructed from polyester and the substrate 250 has a surface density of about 340 g/m^2; and the third layer 256 is a woven material having a honeycomb weave pattern, a pore size of 3 mm and a thickness of 0.3 mm. The substrate 250 was dosed with about 2400 mg of transfluthrin and the concentration of the transfluthrin within the substrate 250 at different locations in a sealed chamber was measured over a period of 75 days. During this trial, the substrate 250 was exposed to an airflow of about 4.8 meters/minute.

[3] = first location within sealed chamber (FIG. 15A)
[4] = second location within sealed chamber (FIG. 15B)
[5] = third location within sealed chamber (FIG. 15C)

SMILES | constant linear release (emanation) rate [1] | time over which the substrate emanated the volatile material at constant linear rate [1] | period of emanation at constant, linear rate, from linear regression lines ([2]; extrapolated from the linear regression lines of FIGS. 15A-15C) | period of constant emanation [2, 3] | constant emanation rate [2, 3] | period of constant emanation [2, 4] | constant emanation rate [2, 4] | period of constant emanation [2, 5] | constant emanation rate [2, 5]
CC1(C)[C@H](C=C(Cl)Cl)[C@H]1C(=O)OCc1c(F)c(F)cc(F)c1F [transfluthrin] | about 1.5 mg/day | approximately 36 days | exceeding one year | greater than 70 days | about 4 mg/day | greater than 70 days | about 6 mg/day | greater than 70 days | about 4 mg/day
C/C=C/C1C(C(=O)OCc2c(F)c(F)c(COC)c(F)c2F)C1(C)C (centres unmarked) [metofluthrin] | about 1.9 mg/day | 20 days | – | – | – | – | – | – | –

Source: patent publication US20240138404A1, “DISPENSER AND METHOD OF USE THEREOF” (S.C. JOHNSON & SON, INC., priority 2019, published 2024)
